According to ChEMBL document CHEMBL3779862, “Amyloid cascade in Alzheimer's disease: Recent advances in medicinal chemistry” (Eur J Med Chem, 2016):

Key:
[1] = target: T1, Amyloid-beta precursor protein (Homo sapiens, UniProt P05067); assay: Inhibition of human amyloid beta (1 to 42) aggregation at 100 uM measured after 72 hrs by Thioflavin T-based fluorometric assay
Cholinesterase = Cholinesterase (Homo sapiens, UniProt P06276); assay: Inhibition of human BuChE assessed as hydrolytic activity using butyrylthiocholine iodide as substrate measured for 15 mins by Ellmans assay
Acetylcholinesterase = Acetylcholinesterase (Homo sapiens, UniProt P22303); assay: Inhibition of human AChE assessed as hydrolytic activity using acetylthiocholine iodide as substrate measured for 15 mins by Ellmans assay
[2] = target: T1, Amyloid-beta precursor protein; assay: Inhibition of amyloid beta (1 to 42) (unknown origin) aggregation at 50 uM measured after 3 hrs by Thioflavin T-based fluorometric assay
[3] = target: T1, Amyloid-beta precursor protein; assay: Inhibition of amyloid beta (1 to 42) (unknown origin) aggregation measured after 24 hrs by Thioflavin T-based fluorometric assay

Sequence of Acetylcholinesterase (P22303 whole entry): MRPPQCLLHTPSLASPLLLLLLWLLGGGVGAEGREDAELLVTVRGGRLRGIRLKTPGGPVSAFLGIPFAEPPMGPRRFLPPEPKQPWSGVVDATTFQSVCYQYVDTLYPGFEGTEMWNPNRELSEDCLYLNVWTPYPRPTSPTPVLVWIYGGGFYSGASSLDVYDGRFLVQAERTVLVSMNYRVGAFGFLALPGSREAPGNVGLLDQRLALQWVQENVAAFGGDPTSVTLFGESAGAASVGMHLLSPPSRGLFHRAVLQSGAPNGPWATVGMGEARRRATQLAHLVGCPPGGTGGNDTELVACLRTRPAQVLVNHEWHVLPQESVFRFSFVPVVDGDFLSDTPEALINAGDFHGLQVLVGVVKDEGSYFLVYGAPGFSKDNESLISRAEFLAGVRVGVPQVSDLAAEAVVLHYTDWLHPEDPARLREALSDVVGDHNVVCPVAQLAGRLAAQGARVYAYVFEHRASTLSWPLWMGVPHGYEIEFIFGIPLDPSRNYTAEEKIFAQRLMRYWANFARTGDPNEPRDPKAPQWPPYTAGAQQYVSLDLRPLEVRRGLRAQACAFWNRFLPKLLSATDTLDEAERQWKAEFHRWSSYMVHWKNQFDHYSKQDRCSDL
T1 sequence (P05067 whole entry): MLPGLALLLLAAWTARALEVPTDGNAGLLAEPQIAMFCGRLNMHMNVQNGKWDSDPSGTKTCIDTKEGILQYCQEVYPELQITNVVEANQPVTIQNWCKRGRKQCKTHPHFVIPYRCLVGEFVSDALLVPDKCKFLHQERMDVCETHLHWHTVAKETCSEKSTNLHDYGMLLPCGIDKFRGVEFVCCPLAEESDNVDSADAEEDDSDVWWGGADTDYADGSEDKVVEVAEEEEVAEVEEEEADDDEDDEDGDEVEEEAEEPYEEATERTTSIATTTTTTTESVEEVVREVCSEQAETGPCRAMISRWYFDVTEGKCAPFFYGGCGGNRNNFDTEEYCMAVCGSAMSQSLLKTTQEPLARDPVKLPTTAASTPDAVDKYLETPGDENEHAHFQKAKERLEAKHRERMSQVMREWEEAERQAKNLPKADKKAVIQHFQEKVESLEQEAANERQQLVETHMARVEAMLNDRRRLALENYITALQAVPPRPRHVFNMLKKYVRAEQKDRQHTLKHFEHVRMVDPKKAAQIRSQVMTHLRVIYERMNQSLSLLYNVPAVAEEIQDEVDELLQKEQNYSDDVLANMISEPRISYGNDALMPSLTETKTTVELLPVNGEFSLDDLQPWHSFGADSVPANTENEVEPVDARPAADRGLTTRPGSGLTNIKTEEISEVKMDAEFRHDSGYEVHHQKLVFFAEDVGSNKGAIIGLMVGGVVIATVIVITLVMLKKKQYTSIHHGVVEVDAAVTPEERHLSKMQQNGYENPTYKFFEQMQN
Sequence of Cholinesterase (P06276 whole entry): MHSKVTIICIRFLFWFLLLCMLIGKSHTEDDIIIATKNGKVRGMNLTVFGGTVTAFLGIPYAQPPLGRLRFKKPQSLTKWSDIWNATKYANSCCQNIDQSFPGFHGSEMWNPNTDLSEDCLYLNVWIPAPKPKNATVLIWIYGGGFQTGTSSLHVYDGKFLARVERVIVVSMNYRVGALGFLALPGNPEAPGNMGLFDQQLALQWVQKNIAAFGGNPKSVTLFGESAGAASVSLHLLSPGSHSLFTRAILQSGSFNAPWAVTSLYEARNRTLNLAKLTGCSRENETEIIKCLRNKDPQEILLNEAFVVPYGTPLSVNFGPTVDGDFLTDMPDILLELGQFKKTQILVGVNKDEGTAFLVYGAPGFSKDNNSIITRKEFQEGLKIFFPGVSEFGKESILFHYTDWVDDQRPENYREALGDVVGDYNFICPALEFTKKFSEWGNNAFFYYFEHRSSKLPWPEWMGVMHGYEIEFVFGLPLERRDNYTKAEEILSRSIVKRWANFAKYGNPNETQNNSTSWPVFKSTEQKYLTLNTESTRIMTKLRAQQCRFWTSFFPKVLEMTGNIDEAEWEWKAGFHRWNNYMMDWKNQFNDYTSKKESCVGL

| Structure (SMILES) | inhibition [2] [%] | IC50 [3] [µM] | inhibition [1] [%] | IC50 (Cholinesterase) [µM] | IC50 (Acetylcholinesterase) [µM] |
| --- | --- | --- | --- | --- | --- |
| CC(COC(=O)c1ccc(Oc2nc(Oc3ccc(C(=O)OCC(C)N(C)C)cc3)nc(Oc3ccc(C(=O)OCC(C)N(C)C)cc3)n2)cc1)N(C)C (centres undefined) |  |  | 68.5 | 164 | 80.8 |
| C[N+](C)(C)CCOC(=O)c1ccc(Oc2nc(Oc3ccc(C(=O)OCC[N+](C)(C)C)cc3)nc(Oc3ccc(C(=O)OCC[N+](C)(C)C)cc3)n2)cc1 |  |  | 50.9 | 3.9 | 0.3 |
| COc1nc(Oc2ccc(C(=O)OCC(C)N(C)C)cc2)nc(Oc2ccc(C(=O)OCC(C)N(C)C)cc2)n1 (centres undefined) |  |  | 58.4 | > 200 | 111 |

More lines, main results first:

| inhibition [2] [%] | IC50 [3] [µM] | Structure (SMILES) | inhibition [1] [%] | IC50 (Cholinesterase) [µM] | IC50 (Acetylcholinesterase) [µM] |
| --- | --- | --- | --- | --- | --- |
| 71 |  | CC(C)CCNC(=O)c1cc(Cc2ccccc2)cc(Oc2ccccc2)n1 |  |  |  |
| 47 |  | O=C(NC1C2CC3CC(C2)CC1C3)c1nc(Cc2ccccc2)cc(Oc2ccccc2)n1 (centres undefined) |  |  |  |
|  | 29 | Cc1ccc(-c2cc(NCCNc3cc(-c4cccs4)[nH]n3)n[nH]2)cc1 |  |  |  |
|  | 7.5 | CN(C)c1ccc(-c2cc(NCCNc3cc(-c4ccc(N(C)C)cc4)[nH]n3)n[nH]2)cc1 |  |  |  |
|  | 40.5 | Fc1ccc(-c2cc(NCCNc3cc(-c4ccc(F)cc4)[nH]n3)n[nH]2)cc1 |  |  |  |
